These results are taken from paper PMC9537541, “Synthesis and anticancer activity of new benzensulfonamides incorporating s-triazines as cyclic linkers for inhibition of carbonic anhydrase IX” (Scientific Reports, 2022).

One data set concerns the target T1, hCA XII (Homo sapiens, UniProt O43570).
T1 construct: made in house
The data set is described as follows: stopped-flow CO2 hydrase assay, hCA XII. Type of data set: biochemical. Conditions: for Selectivity index (SI) I/XII: hCA XII over off-target hCA I; for Selectivity index (SI) II/XII: hCA XII over off-target hCA II; for Ki: stopped flow technique, mean from 3 different assays. As to the method:
(§1) Target compounds of series (A) and (B) were screened as inhibitors concerning the physiologically relevant hCAs; cytosolic isoforms (hCA I and II) in addition to the transmembrane tumor related isoforms (hCA IX and XII) via a stopped-flow assay of carbonic anhydrase catalyzed CO2 hydration. Acetazolamide (AAZ), CA I drug, was also incorporated in the assays as a standard drug. […] Four CA isoforms inhibition activity was measured by assaying CA catalyzed CO2 hydration via an applied photophysics stopped-flow instrument. PRISM 3 and the Cheng-prusoff equation were used to determine the inhibition constant by non-linear least square methods as reported, and represent the mean from three different determination at least. All tested carbonic anhydrase isoforms were recombinant proteins prepared in lab as described earlier,[57].

For another data set, the system named is Renal cancer (UO-31). In words: NCI single dose SRB screen, UO-31. Type of data set: cell-based. To be noted: Homo sapiens, UO-31, 48 h, 10^−5 M single dose, read-out: GI% Renal cancer (UO-31). On the procedure: (§2) Target compounds in series (A) and (B), were submitted to the National Cancer Institute (NCI) Developmental Therapeutic Program (www.dtp.nci.nih.gov), where they have been assessed, in vitro for their anticancer activity. Two series (A) and (B), were screened in a single dose (10 µM) versus full panel composed of 60 cancer cell lines, in accordance with protocol of drug evaluation branch, NCI, Bethesda. Sulforhodamine B (SRB) colorimetric assay was used to determine cell growth and viability,[40].
(§3) Protocol of Drug Evaluation Branch, NCI, Bethesda, was adopted in the antitumor assay. Assessment of cell growth and viability was carried out utilizing SRB assay and 48 h drug exposure protocol as previously reported,[40].

Another data set has as its system Leukemia (SR). The data set is described as follows: NCI single dose SRB screen, SR. Type of data set: cell-based. Conditions: 48 h, 10^−5 M single dose, read-out: GI% Leukemia (SR). As to the method:
as §2, §3

The next data set concerns the target T2, hCA II (Homo sapiens, UniProt P00918).
T2 construct: made in house
In words: stopped-flow CO2 hydrase assay, hCA II. Conditions: for Ki: stopped flow technique, mean from 3 different assays. It is filed as biochemical. As to the method: as §1

For the next data set, the system named is CNS cancer (SNB-75). The data set is described as follows: NCI single dose SRB screen, SNB-75. Type of data set: cell-based. To be noted: Homo sapiens, SNB-75, 48 h, 10^−5 M single dose, read-out: GI% CNS cancer (SNB-75). As to the method:
as §2, §3

A further data set concerns the target T3, hCA IX (Homo sapiens, UniProt Q16790).
T3 construct: made in house
The data set is described as follows: stopped-flow CO2 hydrase assay, hCA IX. It is filed as biochemical. Conditions: for Selectivity index (SI) I/IX: hCA IX over off-target hCA I; for Selectivity index (SI) II/IX: hCA IX over off-target hCA II; for Ki: stopped flow technique, mean from 3 different assays. As to the method:
as §1

Another data set has as its target T4, hCA I (Homo sapiens, UniProt P00915).
T4 construct: made in house
In words: stopped-flow CO2 hydrase assay, hCA I. It is filed as biochemical. To be noted: stopped flow technique, mean from 3 different assays. On the procedure: as §1

Data set [1] concerns Breast cancer (MDA-MB-468). The data set is described as follows: NCI single dose SRB screen, MDA-MB-468. It is filed as cell-based. To be noted: Homo sapiens, MDA-MB-468, 48 h, 10^−5 M single dose, 48 h, SRB; read-out: GI% Breast cancer (MDA-MB-468). On the procedure:
as §2, §3

A further data set relates to leukemia (CCRF-CM). The data set is described as follows: anti-proliferative activity under hypoxic condition (MTT), CCRF-CM. Conditions: hypoxic conditions (1%O2, 5% CO2 and 94% N2), mean ± S.D. of three experiments. Type of data set: cell-based. As to the method:
All cells were incubated in hypoxic atmosphere (1% O2, 5% CO2, and 94%N2) and maintained at 37 °C. All procedures to determine compounds cytotoxicity were accomplished using MTT assay as reported,[59],[60].

T1 sequence (O43570 25-354): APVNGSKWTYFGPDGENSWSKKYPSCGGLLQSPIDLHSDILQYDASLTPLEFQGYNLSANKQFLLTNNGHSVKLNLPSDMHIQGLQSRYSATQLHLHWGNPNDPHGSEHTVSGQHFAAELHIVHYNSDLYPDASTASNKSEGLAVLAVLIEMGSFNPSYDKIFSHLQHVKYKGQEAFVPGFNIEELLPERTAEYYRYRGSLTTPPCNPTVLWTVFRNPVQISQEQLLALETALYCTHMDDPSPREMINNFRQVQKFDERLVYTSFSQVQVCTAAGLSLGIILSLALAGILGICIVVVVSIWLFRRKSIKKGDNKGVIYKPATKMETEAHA
T4 sequence (P00915 whole entry): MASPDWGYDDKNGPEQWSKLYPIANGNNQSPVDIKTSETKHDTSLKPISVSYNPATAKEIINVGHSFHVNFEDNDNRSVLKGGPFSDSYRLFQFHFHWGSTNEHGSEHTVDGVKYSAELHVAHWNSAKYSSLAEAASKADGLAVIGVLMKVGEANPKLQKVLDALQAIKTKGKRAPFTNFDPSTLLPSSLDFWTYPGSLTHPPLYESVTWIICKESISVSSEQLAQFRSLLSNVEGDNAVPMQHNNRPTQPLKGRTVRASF

As for `CC1CCC2(CC1)N=C(N)N=C(Nc1ccc(S(N)(=O)=O)cc1)N2` (stereo not drawn) [Compound 8c, 4-({4-Amino-9-methyl-1,3,5-triazaspiro[5.5]undeca-2,4-dien-2-yl}amino)benzene-1-sulfonamide], the melting point lay within 264 to 266 °C. In addition, at hCA XII, the “Selectivity index (SI) I/XII” value worked out at 0.4, the “Selectivity index (SI) II/XII” value stood at 0.6 and the inhibitory constant (Ki) was 936 nM. Moreover, the inhibition at 10 µM with Renal cancer (UO-31) was not above 10%. The inhibition at 10 µM with Leukemia (SR) is not above 10%. For the same compound, the inhibitory constant (Ki) on hCA II turned out to be 591 nM. Also, the inhibition at 10 µM with CNS cancer (SNB-75) is not above 10%. For the same compound, on hCA IX, the “Selectivity index (SI) I/IX” value is 0.3, the “Selectivity index (SI) II/IX” value came to 0.5 and the affinity corresponds to a Ki of 1220 nM. For the same compound, on hCA I, the affinity corresponds to a Ki of 408 nM. Besides, in data set [1], the inhibition at 10 µM was not above 10%.

`N#C/C(=C\c1ccccc1)c1nc(N)nc(Nc2ccc(S(N)(=O)=O)cc2)n1` [Compound 12a, 4-({4-Amino-6-[(1E)-1-cyano-2-phenyleth-1-en-1-yl]-1,3,5-triazin-2-yl}amino)benzene-1-sulfonamide] registered a melting point of 174 to 176 °C. For the same compound, at hCA XII, the “Selectivity index (SI) I/XII” value came out at 0.4, the “Selectivity index (SI) II/XII” value stood at 0.05 and the Ki worked out at 8060 nM. The inhibition at 10 µM in the data set with Renal cancer (UO-31) is not above 10%. Besides, the inhibition at 10 µM with Leukemia (SR) is not above 10%. This compound came in with a Ki on hCA II of 436 nM. In the data set with CNS cancer (SNB-75), the inhibition at 10 µM is not above 10%. For the same compound, at hCA IX, the “Selectivity index (SI) I/IX” value was found to be 2.3, the “Selectivity index (SI) II/IX” value was found to be 0.3 and the Ki came out at 1540 nM. For the same compound, the inhibitory constant (Ki) on hCA I came out at 3600 nM. In [1], the inhibition at 10 µM was not above 10%.

With `N#C/C(=C\c1ccc(F)cc1)c1nc(N)nc(Nc2ccc(S(N)(=O)=O)cc2)n1` [Compound 12f., 4-({4-Amino-6-[(1E)-1-cyano-2-(4-fluorophenyl)eth-1-en-1-yl]-1,3,5-triazin-2-yl}amino)benzene-1-sulfonamide], the melting point lay in the range of 234 to 236 °C. For the same compound, on hCA XII, the “Selectivity index (SI) I/XII” value was determined as 0.1, the “Selectivity index (SI) II/XII” value is 0.1 and the inhibition constant (Ki) is 4200 nM. Also, the inhibition at 10 µM in the data set with Renal cancer (UO-31) was found to be 15%. Besides, in the data set with Leukemia (SR), the inhibition at 10 µM was found to be 11%. This compound returned a Ki on hCA II of 493 nM. Besides, the inhibition at 10 µM in the data set with CNS cancer (SNB-75) was found to be 10%. For the same compound, at hCA IX, the “Selectivity index (SI) I/IX” value came out at 3; the “Selectivity index (SI) II/IX” value worked out at 2.5; the affinity, expressed as Ki, was 195 nM. The Ki at hCA I was determined as 590 nM. The inhibition at 10 µM in data set [1] came to 15%.

Consider `CN[C@@H]1C[C@H]2O[C@@](C)([C@@H]1OC)n1c3ccccc3c3c4c(c5c6ccccc6n2c5c31)C(=O)NC4` [Staurosporine, reference compound], for which the concentration for half-maximal inhibition (IC50) in the data set with leukemia (CCRF-CM) came out at 2170 ± 110 nM.

Regarding `CC1(C)N=C(N)N=C(N)N1c1ccc(S(=O)(=O)Nc2ccccn2)cc1.Cl` [Compound 5b, 4-(4,6-Diamino-2,2-dimethyl-1,2-dihydro-1,3,5-triazin-1-yl)-N-(pyridin-2-yl)benzene-1-sulfonamide HCl], the melting point fell in the range of 209 to 211 °C. Also, the Ki on hCA XII is more than 10000 nM. Further, the inhibition at 10 µM with Renal cancer (UO-31) was found to be 11%. In addition, the inhibition at 10 µM in the data set on Leukemia (SR) was not above 10%. The compound further registered an inhibitory constant (Ki) at hCA II of more than 10000 nM. For the same compound, the inhibition at 10 µM in the data set with CNS cancer (SNB-75) is 28%. Besides, the inhibition constant Ki on hCA IX was more than 10000 nM. On hCA I, this compound registered an inhibitory constant (Ki) of more than 10000 nM. For the same compound, in data set [1], the inhibition at 10 µM was not above 10%.

`N#CCc1nc(N)nc(Nc2ccc(S(N)(=O)=O)cc2)n1` [Compound 10, 4-{[4-amino-6-(cyanomethyl)-1,3,5-triazin-2-yl]amino}benzene-1-sulfonamide]: the melting point was in the range of 284 to 286 °C. At hCA XII, the “Selectivity index (SI) I/XII” value was 0.01, the “Selectivity index (SI) II/XII” value is 0.006 and the Ki stood at 7630 nM. In the data set with Renal cancer (UO-31), the inhibition at 10 µM was not above 10%. The inhibition at 10 µM in the data set with Leukemia (SR) was not above 10%. The compound also had an inhibitory constant (Ki) at hCA II of 49.2 nM. Further, the inhibition at 10 µM in the data set on CNS cancer (SNB-75) worked out at 33%. At hCA IX, the “Selectivity index (SI) I/IX” value is recorded as 0.03, the “Selectivity index (SI) II/IX” value turned out to be 0.02 and the Ki is 2450 nM. In addition, the Ki at hCA I was determined as 72.3 nM. Besides, the inhibition at 10 µM in data set [1] was not above 10%.

For the compound `NC1=NC2(CCCC2)NC(Nc2ccc(S(N)(=O)=O)cc2)=N1` [Compound 8a, 4-({9-Amino-6,8,10-triazaspiro[4.5]deca-7,9-dien-7-yl}amino)benzene-1-sulfonamide], the melting point was 264 to 266 °C. Besides, on hCA XII, the “Selectivity index (SI) I/XII” value is 0.01, the “Selectivity index (SI) II/XII” value was found to be 0.5 and the Ki stood at 7420 nM. The inhibition at 10 µM in the data set on Renal cancer (UO-31) was determined as 17%. Besides, the inhibition at 10 µM with Leukemia (SR) is not above 10%. Moreover, on hCA II, the Ki came to 3620 nM. For the same compound, the inhibition at 10 µM in the data set on CNS cancer (SNB-75) turned out to be 14%. In addition, on hCA IX, the “Selectivity index (SI) I/IX” value is 0.1, the “Selectivity index (SI) II/IX” value is 2.5 and the Ki was 1420 nM. For the same compound, the Ki at hCA I amounted to 94.4 nM. Further, the inhibition at 10 µM in [1] is not above 10%.

In turn, `CC1(C)N=C(N)N=C(Nc2ccc(S(N)(=O)=O)cc2)N1` [Compound 7a, 4-[(4-Amino-6,6-dimethyl-1,6-dihydro-1,3,5-triazin-2-yl)amino]benzene-1-sulfonamide] came in with a melting point of 268 to 270 °C. Moreover, at hCA XII, the “Selectivity index (SI) I/XII” value stood at 1.5, the “Selectivity index (SI) II/XII” value stood at 0.1 and the Ki amounted to 4650 nM. For the same compound, in the data set on Renal cancer (UO-31), the inhibition at 10 µM came to 12%. In the data set with Leukemia (SR), the inhibition at 10 µM is not above 10%. At hCA II, this compound yielded an inhibition constant (Ki) of 384 nM. For the same compound, the inhibition at 10 µM in the data set with CNS cancer (SNB-75) is not above 10%. For the same compound, on hCA IX, the “Selectivity index (SI) I/IX” value is recorded as 23.2, the “Selectivity index (SI) II/IX” value is recorded as 1.3 and the inhibition constant Ki came to 295 nM. Moreover, the Ki at hCA I stood at 6840 nM. The inhibition at 10 µM in data set [1] was not above 10%.

As for `N#C/C(=C\c1cccc(Br)c1)c1nc(N)nc(Nc2ccc(S(N)(=O)=O)cc2)n1` [Compound 12b, 4-({4-Amino-6-[(1E)-2-(3-bromophenyl)-1-cyanoeth-1-en-1-yl]-1,3,5-triazin-2-yl}amino)benzene-1-sulfonamide], the melting point fell in the range of 234 to 236 °C. In addition, at hCA XII, the “Selectivity index (SI) I/XII” value stood at 0.3, the “Selectivity index (SI) II/XII” value stood at 0.2 and the Ki was 8210 nM. Besides, in the data set on Renal cancer (UO-31), the inhibition at 10 µM turned out to be 16%. Moreover, the inhibition at 10 µM with Leukemia (SR) turned out to be 14%. In addition, at hCA II, the “decrease of hCA II activity relative to the m-fluoro analogue” value is listed as 8 folds and affinity was put at a Ki of 2000 nM. Further, the inhibition at 10 µM in the data set with CNS cancer (SNB-75) was determined as 14%. Also, at hCA IX, the “Selectivity index (SI) I/IX” value turned out to be 2.5; the “Selectivity index (SI) II/IX” value turned out to be 2; the affinity, expressed as Ki, was 1020 nM. The same compound showed an inhibitory constant (Ki) at hCA I of 2620 nM. Further, the inhibition at 10 µM in data set [1] turned out to be 16%.
